Laboratory results taken from paper PMC5390258, “CMD-05, a novel promising clinical anti-diabetic drug candidate, in vivo and vitro studies” (Scientific Reports, 2017).
Like-named read-outs stand apart in the source and are kept apart here.

Experiments:
[1] = target: T1, recombinant human DPP-IV (Homo sapiens, UniProt P27487); experiment: Recombinant human DPP-IV activity assay; type: biochemical; conditions: Gly-Pro-MCA substrate, read-out: IC50 of DPP-IV inhibition
T1 construct: purchased R&D systems, USA
T1 sequence (P27487 whole entry): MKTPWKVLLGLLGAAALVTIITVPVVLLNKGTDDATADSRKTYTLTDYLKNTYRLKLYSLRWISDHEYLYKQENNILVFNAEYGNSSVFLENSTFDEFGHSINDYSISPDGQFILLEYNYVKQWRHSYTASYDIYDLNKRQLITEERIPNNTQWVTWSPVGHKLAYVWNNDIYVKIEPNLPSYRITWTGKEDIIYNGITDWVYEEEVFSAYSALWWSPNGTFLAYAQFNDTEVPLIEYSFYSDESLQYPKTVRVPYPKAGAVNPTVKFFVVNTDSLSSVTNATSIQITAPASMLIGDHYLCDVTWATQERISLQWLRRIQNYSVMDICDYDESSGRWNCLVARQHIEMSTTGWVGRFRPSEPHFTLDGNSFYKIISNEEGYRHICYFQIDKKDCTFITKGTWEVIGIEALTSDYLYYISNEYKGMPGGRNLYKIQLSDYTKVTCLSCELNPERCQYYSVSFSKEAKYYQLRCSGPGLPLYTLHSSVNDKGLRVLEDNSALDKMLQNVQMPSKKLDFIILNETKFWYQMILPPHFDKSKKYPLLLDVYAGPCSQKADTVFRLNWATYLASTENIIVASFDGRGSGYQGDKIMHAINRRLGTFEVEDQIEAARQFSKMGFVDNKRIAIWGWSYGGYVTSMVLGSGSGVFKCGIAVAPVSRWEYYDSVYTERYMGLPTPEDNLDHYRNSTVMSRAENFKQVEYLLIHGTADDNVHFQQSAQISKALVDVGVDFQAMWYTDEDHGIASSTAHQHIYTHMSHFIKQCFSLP
Procedure: DPP-IV inhibition assay was carried out using either 5 ng purified recombinant human DPP-IV (rhDPP-IV) (R&D systems, USA). Recombinant DPP-IV was mixed with ddH2O in an assay buffer (25 mM Tris-HCl, 0.2 M NaCl, 0.1% BSA, pH 7.3). […] The vehicle comprised 1% DMSO in place of test compounds. […] The fluorescence intensity of AMC corresponded to DPP-IV activity.

[2] = test system: model rats (HFD/low-dose STZ, T2DM); experiment: Oral glucose tolerance test (OGTT) in HFD/STZ T2DM model rats; type: in vivo, rat; conditions: for percentage reduction of blood glucose levels in OGTT: model rats
Procedure: (§1) To establish model of T2DM, male rats (80–100 g, 9-week-old)[49] were fed high fat diet (HFD) (20% sugar, 10% lard, 10% egg yolk and 60% basal feed) after a week of normal diet. After 4 weeks, rats were injected once with low-dose streptozotocin (Solarbio, China) (STZ, 30 mg/kg i.p) to induce partial insulin deficiency, and then continuously fed HFD for 4 weeks after injection of STZ. Then the model rats were oral administrated drugs for 30 days. The body weights were recorded once a week.
On the 1st day, 19th days and 29th days of treatment, oral glucose tolerance tests for model rats were carried out. […] The blood glucose levels were tested using Johnson one touch Ultra Test Strips on Johnson Performa blood glucose meter.

[3] = target: T2, plasma DPP-IV (Rattus norvegicus, UniProt P14740); experiment: Plasma DPP-IV activity determination in model rats; type: in vivo
T2 construct: from tissue; host or cells: plasma of Sprague-Dawley rats
T2 sequence (P14740 whole entry): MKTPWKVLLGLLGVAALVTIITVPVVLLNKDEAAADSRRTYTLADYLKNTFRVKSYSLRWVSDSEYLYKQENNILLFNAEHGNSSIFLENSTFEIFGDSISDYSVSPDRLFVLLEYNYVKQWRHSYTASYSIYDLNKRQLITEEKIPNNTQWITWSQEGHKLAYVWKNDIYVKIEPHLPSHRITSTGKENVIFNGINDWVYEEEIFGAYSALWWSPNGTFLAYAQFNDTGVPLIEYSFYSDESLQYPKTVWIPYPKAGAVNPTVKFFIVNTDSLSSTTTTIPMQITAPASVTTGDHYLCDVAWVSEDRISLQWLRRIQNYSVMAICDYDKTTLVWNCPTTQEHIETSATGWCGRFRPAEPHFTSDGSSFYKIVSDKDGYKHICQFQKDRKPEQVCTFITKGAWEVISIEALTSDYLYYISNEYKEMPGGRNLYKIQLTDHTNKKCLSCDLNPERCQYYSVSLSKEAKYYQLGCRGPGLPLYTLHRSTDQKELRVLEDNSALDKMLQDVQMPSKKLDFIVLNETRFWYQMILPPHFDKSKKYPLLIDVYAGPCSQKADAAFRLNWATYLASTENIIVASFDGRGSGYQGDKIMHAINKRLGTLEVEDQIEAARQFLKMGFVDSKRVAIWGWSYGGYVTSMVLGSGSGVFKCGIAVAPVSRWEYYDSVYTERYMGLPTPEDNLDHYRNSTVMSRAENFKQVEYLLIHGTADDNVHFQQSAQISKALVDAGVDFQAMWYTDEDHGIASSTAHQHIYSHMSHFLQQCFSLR

[4] = test system: GLP-1; experiment: Plasma GLP-1 levels in model rats (ELISA); type: in vivo, rat; conditions: 4.5 mg/kg, glucose load and random plasma
Procedure: as §1
(§2) Oral glucose load, fasted and random blood samples were collected from rats on the 28th days, the 29th days and the last of the treatment of drugs, respectively. Plasma levels of insulin and GLP-1 were measured by ELISA kits (YuanYe, China) according to the manufacturer’s recommendation. The levels of HbA1c, Triglycerides (TG), total cholesterol (TC) and low density lipoprotein cholesterol (LDL-C) in blood samples were measured by commercial assay kits (JianCheng, Nanjing, China) according to the manufacturer’s directions.

[5] = test system: insulin; experiment: Plasma insulin levels in model rats (ELISA); type: in vivo, rat; conditions: 1.5 and 4.5 mg/kg, fasted, glucose load and random plasma
Procedure: as §1, §2

[6] = test system: TG, LDL-C; experiment: TG and LDL-C plasma levels in model rats; type: in vivo, rat
Procedure: as §1, §2

[7] = Body weight of model rats; type: in vivo, rat; conditions: 30 days treatment
Procedure: as §1

[8] = test system: INS-1 cells; experiment: Apoptosis of INS-1 cells induced by STZ (Annexin V/PI flow cytometry); type: cell-based, rat; conditions: STZ-induced, 1, 10, 100 μM, 36 h, concentration dependent
Procedure: The INS cells were seeded into 6-well culture plates at 3 × 10^4 cells per ml and incubated at 37 °C for 24 h. […] After incubated for 36 h, apoptosis was assessed by flow cytometry using the Annexin V-FITC/ propidium iodide (Annexin V/PI) apoptosis detection kit according to the manufacturer’s protocol.

[9] = test system: NCI-H716 cells; experiment: GLP-1 secretion in NCI-H716 cells; type: cell-based, human; conditions: 100 μM, 2 h; solvent group 6.6 ± 0.14 pmol/L
Procedure: Human enteroendocrine NCI-H716 cells were maintained in suspension culture as described by the American Type Culture Collection guideline (ATCC). Two days before the experiments, cells were seeded into 12-well culture plates coated with Matrigel at 1 × 10^6 cells per well. Cells were incubated in RPMI 1640 containing 10% FBS at 37 °C for 48 h. […] After incubated for 2 h, GLP-1 concentrations from the supernatants were measured by ELISA kits (YuanYe, China).

[10] = Pharmacokinetics in rats; type: in vivo, rat
Procedure: Male SD rats (200–220 g) were fasted overnight to administration of CMD-05 intravenously via tail vein (50 mg/kg, n = 4) or by oral gavage (50 mg/kg, n = 4). Blood samples of 0.3 ml were collected from the orbital venous at 1 min, 3 min, 5 min, 15 min, 30 min, 60 min, 120 min, 240 min, 480 min, 720 min after tail vein injection of CMD-05 and at 15 min, 30 min, 45 min, 60 min, 120 min, 240 min, 480 min, 720 min after oral of CMD-05. Plasma was obtained after centrifugation. The concentrations of CMD-05 in plasma were determined by HPLC method. The pharmacokinetic parameters of CMD-05 in the rats were analyzed by DAS2 software.

[11] = test system: 293 cells; experiment: Cytotoxicity in 293 cells (CCK-8); type: cell-based; conditions: 12 h
Procedure: The toxicities of CMD-05 on HT22, 293 and […] cell lines was assessed using Cell Counting Kit-8 (CCK-8) (Biosharp, China). Briefly, the cells were plated on 96-well plates. […] The absorbance at 450 nm was measured using a microplate spectrophotometer.

[12] = test system: Kunming mice; experiment: Acute toxicity in mice; type: in vivo
Procedure: For acute hypoglycemia test, male rats (150–250 g) were used. […].
Acute toxicological signs of included activities, nervous system response, autonomic nervous system response and death of mice were observed after a single oral dose of 2000 mg/kg.

[13] = fasted plasma, read-out: plasma DPP-IV inhibition rate
[14] = glucose load plasma, read-out: plasma DPP-IV inhibition
[15] = random plasma, read-out: plasma DPP-IV inhibition

N#C[C@@H]1CCCN1C(=O)CN(C(=O)CCCCCl)C12CC3CC(CC(O)(C3)C1)C2 [CMD-05]
IC50 [1]: 12 nM | percentage reduction of blood glucose levels in OGTT ([2]; 1.5 mg/kg oral, 1st day): 8.0% | percentage reduction of blood glucose levels in OGTT ([2]; 1.5 mg/kg oral, 19th day): 9.22% | percentage reduction of blood glucose levels in OGTT ([2]; 1.5 mg/kg oral, 29th day): 17.8% | percentage reduction of blood glucose levels in OGTT ([2]; 4.5 mg/kg oral, 1st day): 9.7% | percentage reduction of blood glucose levels in OGTT ([2]; 4.5 mg/kg oral, 19th day): 12.2% | percentage reduction of blood glucose levels in OGTT ([2]; 4.5 mg/kg oral, 29th day): 21.9% | AUC (area under the blood glucose curve) in OGTT ([2]; 1st, 19th and 29th day, vs model group): significant decrease | inhibition at 0.5 mg/kg [3, 13]: ~20% | inhibition at 1.5 mg/kg [3, 13]: ~30% | inhibition at 4.5 mg/kg [3, 13]: ~50% | inhibition at 0.5 mg/kg [3, 14]: ~10% | inhibition at 1.5 mg/kg [3, 14]: ~20% | inhibition at 4.5 mg/kg [3, 14]: ~70% | inhibition at 0.5 mg/kg [3, 15]: ~20% | inhibition at 1.5 mg/kg [3, 15]: ~30% | inhibition at 4.5 mg/kg [3, 15]: ~55% | levels of GLP-1 in plasma [4]: significantly increased | insulin levels in plasma [5]: significantly increased | reduction of LDL-C level ([6]; 0.5 mg/kg): 9% | reduction of TG level ([6]; 0.5 mg/kg): 22.41% | reduction of LDL-C level ([6]; 1.5 mg/kg): 12.60% | reduction of TG level ([6]; 1.5 mg/kg): 37.07% | reduction of LDL-C level ([6]; 4.5 mg/kg): 17.91% | reduction of TG level ([6]; 4.5 mg/kg): 42.67% | plasma lipids levels ([6]; 4.5 mg/kg continuously for 30 days): decreased to normal level | body weights vs model group [7]: no significant difference | apoptosis of INS-1 cells [8]: reduce of apoptosis | GLP-1 secretion [9]: 7.5 ± 0.44 pmol/L | effect of food on pharmacokinetics ([10]; healthy rats): not affected by food | half-life ([10]; male, SD, rat, plasma, oral, 50 mg/kg, rats, 50 mg/kg, read-out: half-life): 4.8 h | Tmax ([10]; male, SD, rat, plasma, po, 50 mg/kg, rats, single oral 50 mg/kg, read-out: time to peak plasma concentration (converted)): 0.5 h | bioavailability ([10]; male, SD, rat, plasma, rats, 50 mg/kg oral vs intravenous, read-out: absolute bioavailability): 84.5% | half-life ([10]; rats, 50 mg/kg): 4.798 ± 0.437 h | time to peak plasma concentration ([10]; rats, single oral 50 mg/kg, 50 mg/kg): 30 to 45 min | cytotoxicity (cell viability) ([11]; 1 × 10^−4 M): slightly reduced cell viability | cytotoxicity (cell viability) ([11]; 3 × 10^−6 to 1 × 10^−5 M): did not induce significant cytotoxicity | maximum tolerance dose ([12]; oral): > 2000 mg/kg | acute toxicity signs ([12]; single oral dose of 2000 mg/kg): no toxicological signs
